In general, EC50 refers to the midpoint of the concentration-response curve. Broadly, the IC50 is the concentration at which inhibition is half-maximal.

The values that follow come from ChEMBL document CHEMBL3352791, “Thioaryl naphthylmethanone oxime ether analogs as novel anticancer agents” (J Med Chem, 2014).

Data set [1] in a line: Antiproliferative activity against human prostate, androgen receptor positive DU145 cells after 24 hrs by MTT assay. The data set is classed as functional, cell-based, DU-145. (In general: Tetrazolium dyes change colour on reduction, which living cells bring about.)
In data set [2] the test system is Ishikawa. The experiment in a line: Antiproliferative activity against human ER-positive Ishikawa cells after 24 hrs by MTT assay. The data set is classed as functional, cell-based.
Data set [3] relates to MCF7. The experiment in a line: Antiproliferative activity against human ER-negative MCF7 cells after 24 hrs by MTT assay. It counts as functional, cell-based.
Data set [4] has as its system HeLa. Kind of data set: Antiproliferative activity against human HeLa cells after 24 hrs by MTT assay. The data set is classed as functional, cell-based.
Data set [5] deals with MDA-MB-231. Kind of data set: Antiproliferative activity against human ER-positive MDA-MB-231 cells after 24 hrs by MTT assay. It counts as functional, cell-based.
In data set [6] the test system is MDA-MB-231. The experiment in a line: Antiproliferative activity against human ER-positive MDA-MB-231 cells after 72 hrs by MTT assay. As to conditions: MDA-MB-231, 72 h. It counts as functional, cell-based.
Data set [7] in a line: Safety index, ratio of IC50 for human MCF10A cells to EC50 for human ER-positive MDA-MB-231 cells. As to conditions: MCF10A cells versus.
Data set [8] is described as follows: Cytotoxicity against human MCF10A cells after 72 hrs by MTT assay. The data set is classed as ADME, cell-based. Conditions: MCF-10A.
The subject of data set [9] is MCF7. The experiment in a line: Antiproliferative activity against human ER-negative MCF7 cells after 72 hrs by MTT assay. The data set is classed as functional, cell-based. As to conditions: MCF7, 72 h.
A short description of data set [10]: in vitro. Conditions: human, MCF10A cells versus.

Bounds are passed on as bounds.

In the case of `CCN(CC)CCO/N=C(\c1ccc(OC)cc1)c1cccc2ccccc12`, the EC50 is more than 50 µM in [1] (Homo sapiens, DU-145, 24 h); more than 50 µM in data set [2] (Homo sapiens, Ishikawa, 24 h); 20 µM in data set [3] (Homo sapiens, MCF7, 24 h); more than 50 µM in data set [4] (Homo sapiens, HeLa, 24 h); more than 50 µM in data set [5] (Homo sapiens, MDA-MB-231, 24 h).

Take `CC/C(=C(\c1ccc(O)cc1)c1ccc(OCCN(C)C)cc1)c1ccccc1` [AFIMOXIFENE]: the 50% effective concentration (EC50) in data set [1] (Homo sapiens, DU-145, 24 h) worked out at 10 µM; in [6], 7.8 µM; in data set [2] (Homo sapiens, Ishikawa, 24 h), 11.5 µM; in data set [3] (Homo sapiens, MCF7, 24 h), 8.8 µM; in data set [5] (Homo sapiens, MDA-MB-231, 24 h), 8 µM. Moreover, in data set [7], the selectivity ratio came to 1.28.

With `CCN(CCCCO/N=C(\c1ccc(SC)cc1)c1cccc2ccccc12)Cc1ccccc1`, the EC50 in data set [1] (Homo sapiens, DU-145, 24 h) was more than 50 µM; in data set [2] (Homo sapiens, Ishikawa, 24 h) it was more than 50 µM; in data set [3] (Homo sapiens, MCF7, 24 h), more than 50 µM; in [4] (Homo sapiens, HeLa, 24 h) it was 10 µM; in [5] (Homo sapiens, MDA-MB-231, 24 h), more than 50 µM.

For the molecule `CSc1ccc(/C(=N\OCCCCN2CCCCC2)c2cccc3ccccc23)cc1`, the EC50 in data set [1] (Homo sapiens, DU-145, 24 h) turned out to be 7.5 µM; in [6], 18 µM; in data set [2] (Homo sapiens, Ishikawa, 24 h), 18 µM; in [3] (Homo sapiens, MCF7, 24 h) it was 8 µM; in [4] (Homo sapiens, HeLa, 24 h) it was 18 µM; in [9], 8 µM. In [5] (Homo sapiens, MDA-MB-231, 24 h), this molecule yielded an EC50 of 18 µM. The IC50 in data set [8] came to 10 µM. The values for the selectivity ratio in data set [7] and in data set [10] were 0.5 and 1.2, respectively.

`CSc1ccc(/C(=N\OCCN(C)C)c2cccc3ccccc23)cc1`: the EC50 is 15 µM in data set [1] (Homo sapiens, DU-145, 24 h); 9 µM in [2] (Homo sapiens, Ishikawa, 24 h); 14 µM in [3] (Homo sapiens, MCF7, 24 h); 14 µM in data set [4] (Homo sapiens, HeLa, 24 h); 12.8 µM in data set [5] (Homo sapiens, MDA-MB-231, 24 h).

For `CSc1ccc(/C(=N\OCCN2CCOCC2)c2cccc3ccccc23)cc1`, the EC50 was more than 50 µM in data set [1] (Homo sapiens, DU-145, 24 h); more than 50 µM in data set [2] (Homo sapiens, Ishikawa, 24 h); more than 50 µM in data set [3] (Homo sapiens, MCF7, 24 h); more than 50 µM in data set [4] (Homo sapiens, HeLa, 24 h); more than 50 µM in data set [5] (Homo sapiens, MDA-MB-231, 24 h).

For `CCCCN(C)CCCO/N=C(\c1ccc(SC)cc1)c1cccc2ccccc12`, the concentration giving a half-maximal response (EC50) in data set [1] (Homo sapiens, DU-145, 24 h) was more than 50 µM; in [2] (Homo sapiens, Ishikawa, 24 h) it was more than 50 µM; in data set [3] (Homo sapiens, MCF7, 24 h) it was more than 50 µM; in data set [4] (Homo sapiens, HeLa, 24 h), 8 µM; in data set [5] (Homo sapiens, MDA-MB-231, 24 h) it was more than 50 µM.

For `COc1ccc(/C(=N\OCCCN(C)C)c2cccc3ccccc23)cc1`, the concentration for a half-maximal effect (EC50) in [1] (Homo sapiens, DU-145, 24 h) is more than 50 µM; in data set [2] (Homo sapiens, Ishikawa, 24 h) it was more than 50 µM; in [3] (Homo sapiens, MCF7, 24 h) it was 20.5 µM; in [4] (Homo sapiens, HeLa, 24 h), more than 50 µM; in data set [5] (Homo sapiens, MDA-MB-231, 24 h), more than 50 µM.

For the molecule `CCN(CC)CCO/N=C(\c1ccc(SC)cc1)c1cccc2ccccc12` [listing 1 of 3 here], the EC50 in data set [1] (du-145) stood at 20 µM; in [2] (ishikawa), 20 µM; in [3] (mcf7) it was 18.5 µM; in [5] (mda-mb-231), 14.8 µM.

Regarding `CCN(CC)CCO/N=C(\c1ccc(SC)cc1)c1cccc2ccccc12` [listing 2 of 3 here], the concentration for a half-maximal effect (EC50) in data set [1] (du-145), in data set [2] (ishikawa), in [3] (mcf7), in data set [4] (hela) and in data set [5] (mda-mb-231) was more than 50 µM throughout.

As to `CSc1ccc(/C(=N\OCCCN2CCC(C)CC2)c2cccc3ccccc23)cc1`, the EC50 in data set [1] (Homo sapiens, DU-145, 24 h) is 10 µM; in [2] (Homo sapiens, Ishikawa, 24 h) it was more than 50 µM; in [3] (Homo sapiens, MCF7, 24 h), 6.5 µM; in [4] (Homo sapiens, HeLa, 24 h), more than 50 µM; in data set [5] (Homo sapiens, MDA-MB-231, 24 h), 20 µM.

`CSc1ccc(/C(=N\OCCN2CCCCCC2)c2cccc3ccccc23)cc1`: the concentration for a half-maximal effect (EC50) in [1] (Homo sapiens, DU-145, 24 h) was more than 50 µM; in [2] (Homo sapiens, Ishikawa, 24 h), more than 50 µM; in data set [3] (Homo sapiens, MCF7, 24 h) it was more than 50 µM; in data set [4] (Homo sapiens, HeLa, 24 h), more than 50 µM; in data set [5] (Homo sapiens, MDA-MB-231, 24 h) it was more than 50 µM.

As to `CCN(CC)CCO/N=C(\c1ccc(SC)cc1)c1cccc2ccccc12` [listing 3 of 3 here], the concentration for a half-maximal effect (EC50) in data set [1] (du-145) came to 25 µM; in [2] (ishikawa), 25 µM; in [3] (mcf7) it was 13.5 µM; in data set [4] (hela), 20 µM; in [5] (mda-mb-231), 8.8 µM.

With `O=C(c1ccc(OCCN2CCCCC2)cc1)c1c(-c2ccc(O)cc2)sc2cc(O)ccc12` [RALOXIFENE], the EC50 in data set [1] (Homo sapiens, DU-145, 24 h) is more than 50 µM; in data set [2] (Homo sapiens, Ishikawa, 24 h), 20 µM; in data set [3] (Homo sapiens, MCF7, 24 h) it was 23 µM; in data set [5] (Homo sapiens, MDA-MB-231, 24 h), 30 µM.

`CSc1ccc(/C(=N\OCCN(C(C)C)C(C)C)c2cccc3ccccc23)cc1`: the 50% effective concentration (EC50) in [1] (Homo sapiens, DU-145, 24 h) was more than 50 µM; in data set [2] (Homo sapiens, Ishikawa, 24 h), more than 50 µM; in [3] (Homo sapiens, MCF7, 24 h), more than 50 µM; in data set [4] (Homo sapiens, HeLa, 24 h), more than 50 µM; in [5] (Homo sapiens, MDA-MB-231, 24 h), more than 50 µM.

Consider `CSc1ccc(/C(=N\OCCCN2CCOCC2)c2cccc3ccccc23)cc1`, for which the concentration giving a half-maximal response (EC50) in [1] (Homo sapiens, DU-145, 24 h) was more than 50 µM; in [2] (Homo sapiens, Ishikawa, 24 h) it was more than 50 µM; in data set [3] (Homo sapiens, MCF7, 24 h), more than 50 µM; in [4] (Homo sapiens, HeLa, 24 h), more than 50 µM; in [5] (Homo sapiens, MDA-MB-231, 24 h) it was more than 50 µM.

For `COc1ccc(/C(=N\OC(C)CN(C)C)c2cccc3ccccc23)cc1` (centres undefined), the concentration for a half-maximal effect (EC50) was more than 50 µM in data set [1] (Homo sapiens, DU-145, 24 h); more than 50 µM in [2] (Homo sapiens, Ishikawa, 24 h); more than 50 µM in [3] (Homo sapiens, MCF7, 24 h); more than 50 µM in [4] (Homo sapiens, HeLa, 24 h); more than 50 µM in data set [5] (Homo sapiens, MDA-MB-231, 24 h).
